# Patent US6569842B2 (Board of Trustees of the University of Illinois, The, priority 2000, dated 2003)
# Assays:
# ZR-75-1 (breast) [1] = experiment: Cytotoxicity against cultured ZR-75-1 cells (SRB); type: cell-based, human; conditions: Homo sapiens, ZR-75-1, 72 h; Method A, sample dissolved in DMSO; three days incubation; read-out: ED50 ZR 75-1
# Protocol: (§1) Cytotoxicity of the crude extracts and purified compounds was determined in a number of cultured human cancer cell lines. Table 1 sets forth the various types of cancer cells evaluated using Method A. The cells were cultured in appropriate media and under standard conditions. To maintain logarithmic growth, the media were changed 24 hours prior to cytotoxic assays. On the day of the assay, the cells were harvested by trypsinization, counted, diluted in media, and added to 96-well plates containing test compounds dissolved in DMSO. The final DMSO concentration was 0.05%.
# (§2) In each of Methods A-C, the plates were incubated for three days. Following the incubation period, the cells were fixed and stained with sulforhodamine B (SRB) dye. The bound dye was liberated with Tris base, and the OD515 (optical density at 515 nm) was measured on an ELISA reader. The growth of the betulinic acid-treated cells was determined by the OD515 values, and the growth was compared to the OD515 values of […] control cells of Methods A-C. Dose response studies were performed to generate ED50 values. As used herein, the term OD515 is defined as optical density at 515 nm, and the term ED50 is defined as the concentration of a compound required to reduce cell number by 50%.
# [2] = 200 and 400 mg/kg doses; cited from earlier work
# U373 (glioma) [3] = experiment: Cytotoxicity against cultured U373 cells (SRB); type: cell-based, human; conditions: Method A, sample dissolved in DMSO; three days incubation
# Protocol: as §1, §2
# LNCaP (prostate) [4] = experiment: Cytotoxicity against cultured LNCaP cells (SRB); type: cell-based, human
# BC-1 (breast) [5] = experiment: Cytotoxicity against cultured BC-1 cells (SRB); type: cell-based, human; conditions: Homo sapiens, BC1, 72 h; Method A, sample dissolved in DMSO; three days incubation; read-out: ED50 BC-1
# Protocol: as §1
# In each of Methods A-C, the plates were incubated for three days. Following the incubation period, the cells were fixed and stained with sulforhodamine B (SRB) dye. The bound dye was liberated with Tris base, and the OD515 (optical density at 515 nm) was measured on an ELISA reader. […] Dose response studies were performed to generate ED50 values. As used herein, the term OD515 is defined as optical density at 515 nm, and the term ED50 is defined as the concentration of a compound required to reduce cell number by 50%.
# A431 (squamous cells) = experiment: Cytotoxicity against cultured A431 cells (SRB); type: cell-based, human
# Protocol: as §1, §2
# U373 (glioma) [6] = experiment: Cytotoxicity against cultured U373 cells (SRB); type: cell-based, human
# [7] = mouse, in vivo, 500 mg/kg
# Protocol: In particular, the data was derived from experiments wherein four week old athymic mice were injected subcutaneously in the right flank with 3.0×10^8 UISO MEL-2 cells. UISO MEL-2 is a cell line derived from metastatic melanoma from human pleural fluid. Drug treatment was initiated on the day following tumor cell injection and continued every fourth day for a total of six doses. […] The mice were weighed, and the tumors measured with a micrometer every other day throughout the study. All animals were sacrificed and autopsied on day 33, when the mean tumor volume in the control animals was approximately one cm^3.
# MEL-2 (melanoma) [8] = experiment: Cytotoxicity against cultured MEL-2 cells (SRB); type: cell-based, human
# COL-2 (colon) [9] = experiment: Cytotoxicity against cultured COL-2 cells (SRB); type: cell-based, human; conditions: Method B, sample dissolved in tissue culture media
# LU-1 (lung) = experiment: Cytotoxicity against cultured LU-1 cells (SRB); type: cell-based, human
# Protocol: as §1, §2
# LNCaP (prostate) [10] = experiment: Cytotoxicity against cultured LNCaP cells (SRB); type: cell-based, human; conditions: Method A, sample dissolved in DMSO; three days incubation
# Protocol: as §1, §2
# UISO MEL-1 cells = experiment: In vivo study, MEL-1 tumors in athymic mice; conditions: 5, 50 or 250 mg/kg/dose IP betulinic acid/PVP every fourth day, six doses
# Protocol: In particular, four-week-old athymic mice were injected subcutaneously in the right flank with 5.0×10^8 UISO MEL-1 cells. Drug treatment was initiated on the day following tumor cell injection and continued every fourth day for a total of six doses. […] The mice were weighed, and tumors were measured with a micrometer every third day throughout the study. Treated animals were sacrificed and autopsied on day 41, when the mean tumor volume in the control mice was approximately 0.5 cm^3. The control mice then received six doses of 50 mg/kg every fourth day beginning day 41 and were sacrificed and autopsied on day 71.
# The results with respect to MEL-1 cells were similar to the results with respect to MEL-2 cells.
# [11] = tested on: MEL-1 human melanoma cell line; experiment: Cytotoxicity against cultured MEL-1 cells (SRB); type: cell-based
# Protocol: as §1, §2
# HT-1080 (sarcoma) = experiment: Cytotoxicity against cultured HT-1080 cells (SRB); type: cell-based, human
# Protocol: as §1, §2
# [12] = tested on: MEL-4 human melanoma cell line; experiment: Cytotoxicity against cultured MEL-4 cells (SRB); type: cell-based
# Protocol: as §1, §2
# COL-2 (colon) [13] = experiment: Cytotoxicity against cultured COL-2 cells (SRB); type: cell-based, human; conditions: Homo sapiens, Col2, 72 h, Method A, sample dissolved in DMSO; three days incubation; read-out: ED50 COL-2
# Protocol: as §1, §2
# [14] = tested on: MEL-3 human melanoma cell line; experiment: Cytotoxicity against cultured MEL-3 cells; type: cell-based; conditions: dose-response study
# Protocol: as §2
# BC-1 (breast) [15] = experiment: Cytotoxicity against cultured BC-1 cells (SRB); type: cell-based, human; conditions: Method B, sample dissolved in tissue culture media
# MEL-2 (melanoma) [16] = experiment: Cytotoxicity against cultured MEL-2 cells (SRB); type: cell-based, human; conditions: Homo sapiens, MEL2, 72 h, Method A, sample dissolved in DMSO; three days incubation; read-out: ED50 MEL-2
# Protocol: as §1, §2
# [17] = tested on: human neuroblastoma cell lines; experiment: Cytotoxic activity against neuroblastoma cell lines; type: cell-based
# ZR-75-1 (breast) [18] = experiment: Cytotoxicity against cultured ZR-75-1 cells (SRB); type: cell-based, human
# [19] = tested on: KB (human oral epidermoid carcinoma); experiment: Cytotoxicity against cultured KB cells (SRB); type: cell-based
# Protocol: as §1, §2
# [20] = Method B, sample dissolved in tissue culture media
# [21] = Method C, sample dissolved in 5% aqueous bovine serum albumin
# [22] = Method A, sample dissolved in DMSO, three days incubation
smiles,measurement,setting,value
"C=C(C)[C@@H]1CC[C@]2(C(=O)O)CC[C@]3(C)[C@H](CC[C@@H]4[C@@]5(C)CC[C@H](O)C(C)(C)[C@@H]5CC[C@]43C)[C@@H]12 [Betulinic acid, 3β-hydroxy-lup-20 (29)ene-28-oic acid]",IC50,ZR-75-1 (breast) [1],> 20 µg/mL
same,activity in Hippocratic screen,[2],inactive
same,ED50 U373,U373 (glioma) [3],>20 µg/mL
same,ED50 LNCaP,LNCaP (prostate) [4]; [20],19.3 µg/mL
same,ED50 LNCaP,LNCaP (prostate) [4]; [21],16.6 µg/mL
same,IC50,BC-1 (breast) [5],> 20 µg/mL
same,ED50 A431,A431 (squamous cells); [22],>20 µg/mL
same,ED50 A431,A431 (squamous cells); [20],12.1 µg/mL
same,ED50 A431,A431 (squamous cells); [21],>20 µg/mL
same,ED50 U373,U373 (glioma) [6]; [20],12.1 µg/mL
same,ED50 U373,U373 (glioma) [6]; [21],18.7 µg/mL
same,acute toxicity and body weight,[7],without causing acute signs of toxicity or a decrease in body weight
same,ED50 Mel2,MEL-2 (melanoma) [8]; [20],0.9 µg/mL
same,ED50 Mel2,MEL-2 (melanoma) [8]; [21],1.6 µg/mL
same,ED50 Col2,COL-2 (colon) [9],13.3 µg/mL
same,IC50,"LU-1 (lung); Homo sapiens, Lu1, 72 h, Method A, sample dissolved in DMSO, three days incubation, read-out: ED50 LU-1",> 20 µg/mL
same,ED50 Lu1,LU-1 (lung); [20],7.7 µg/mL
same,ED50 LNCaP,LNCaP (prostate) [10],>20 µg/mL
same,activity against MEL-1 tumors,UISO MEL-1 cells,active
same,ED50 MEL-1,[11]; [22],1.1 µg/mL
same,ED50 Mel1,[11]; [20],0.9 µg/mL
same,IC50,"HT-1080 (sarcoma); Homo sapiens, HT-1080, 72 h, Method A, sample dissolved in DMSO, three days incubation, read-out: ED50 HT-1080",> 20 µg/mL
same,ED50 HT,HT-1080 (sarcoma); [20],11.3 µg/mL
same,ED50 HT,HT-1080 (sarcoma); [21],10.0 µg/mL
same,ED50 MEL-4,[12]; [22],4.8 µg/mL
same,ED50 Mel4,[12]; [20],1.6 µg/mL
same,IC50,COL-2 (colon) [13],> 20 µg/mL
same,ED50 MEL-3,[14],3.3 µg/mL
same,ED50 BC1,BC-1 (breast) [15],11.2 µg/mL
same,IC50,MEL-2 (melanoma) [16],~2 µg/mL
same,cytotoxic activity against human neuroblastoma cell lines,[17],excellent cytotoxic activity
same,ED50 ZA-75-1,ZR-75-1 (breast) [18]; [20],6.4 µg/mL
same,ED50 ZA-75-1,ZR-75-1 (breast) [18]; [21],6.9 µg/mL
same,ED50 KB,[19]; [20],>20 µg/mL
same,ED50 KB,[19]; [21],16.6 µg/mL
